Assay results as given in US20250129044A1 (priority 2021, published 2025).
Structures can show the parent of a compound that is named as a salt.

What follows are compounds tested against sodium channel isoforms (Homo sapiens, UniProt P35498). Settings: area under the sodium current trace, step from −120 mV to 0 mV, HEK cells.
Assay type: cell-based
Experimental: The sodium channel isoforms of interest are stably expressed in Human Embryonic Kidney Cells and the currents that flow through those channels in response to a depolarizing voltage clamp step from −120 mV to 0 mV are measured in the presence of increasing concentrations of the chemical agents. The area under the sodium current trace which correlates to the magnitude of sodium flux through the cell membrane is used to quantify the effects on gating of the channels. Other parameters that are measured in the assay include the peak current, time constant of open state inactivation and the voltage dependence of steady state inactivation properties. The concentration responses are used to determine potency of each chemical agents effects on modulating the sodium channel isoform gating. Such techniques are known to those skilled in the art, and may be developed, using current technologies, into low or medium throughput assays for evaluating compounds for their ability to modulate sodium channel behaviour.
With `CC(C)c1ncc(C(=O)Nc2c(-c3ccccc3)ccnc2C2CCCO2)cn1` (racemic) [Example 11, (±)-2-isopropyl-N-(4-phenyl-2-(tetrahydrofuran-2-yl)pyridin-3-yl)pyrimidine-5-carboxamide] the “Empirical Emax” value was “+ (+ indicates a value less than 2.0 μM)”. In the case of `CC(C)c1ncc(C(=O)Nc2c(-c3ccccc3)ccnc2C23CCOCC2C3)cn1` (racemic) [Example 12, (±)—N-(2-(3-oxabicyclo[4.1.0]heptan-6-yl)-4-phenylpyridin-3-yl)-2-isopropylpyrimidine-5-carboxamide], the “Empirical Emax” value is reported as “+ (+ indicates a value less than 2.0 μM)”. `CC(C)c1ncc(C(=O)Nc2c(-c3ccccc3)ccnc2C2CCCN2C(=O)OC(C)(C)C)cn1` (racemic) [Example 13, (±)-tert-butyl 2-(3-(2-isopropylpyrimidine-5-carboxamido)-4-phenylpyridin-2-yl)pyrrolidine-1-carboxylate] was tested, and the “Empirical Emax” value was “+ (+ indicates a value less than 2.0 μM)”. With `CC(C)c1ncc(C(=O)Nc2c(-c3ccccc3F)ccnc2C2CCCC(F)(F)CC2)cn1` (racemic) [Example 37, (±)-N-(2-(4,4-difluorocycloheptyl)-4-(2-fluorophenyl)pyridin-3-yl)-2-isopropylpyrimidine-5-carboxamide] the “Empirical Emax” value was “+++ (+++ indicates a value from 5.0 up to 7.5 μM)”. `CC(C)c1ncc(C(=O)Nc2c(-c3ccccc3F)ccnc2C2CC(F)(F)CCN2)cn1` (racemic) [Example 41, (±)—N-[2-(4,4-difluoro-2-piperidyl)-4-(2-fluorophenyl)-3-pyridyl]-2-isopropyl-pyrimidine-5-carboxamide hydrochloric acid salt] was tested, and the “Empirical Emax” value was “++ (++ indicates a value from 2.0 up to 5.0 μM)”. `CC(C)c1ncc(C(=O)Nc2c(-c3ccccc3F)ccnc2C2CCCN2C)cn1` (racemic) [Example 42, (±)—N-(4-(2-fluorophenyl)-2-(1-methylpyrrolidin-2-yl)pyridin-3-yl)-2-isopropylpyrimidine-5-carboxamide] was tested, and the “Empirical Emax” value was “+ (+ indicates a value less than 2.0 μM)”. `CC(C)c1ncc(C(=O)Nc2c(-c3ccccc3F)ccnc2C2CC(F)(F)CCN2C)cn1` (racemic) [Example 43] was tested, and the “Empirical Emax” value was “++ (++ indicates a value from 2.0 up to 5.0 μM)”. `O=C(Nc1c(-c2ccccc2F)ccnc1C1CCC(F)(F)CC1)c1cnn(C2CCC2)c1` [Example 1, 1-cyclobutyl-N-[2-(4,4-difluorocyclohexyl)-4-(2-fluorophenyl)-3-pyridyl]pyrazole-4-carboxamide] was tested, and the “Empirical Emax” value was “++++ (++++ indicates a value greater than 7.5)”. For `CN(C)c1ncc(C(=O)Nc2c(-c3ccccc3F)ccnc2C2CCC(F)(F)CC2)cn1` [Example 2, N-[2-(4,4-difluorocyclohexyl)-4-(2-fluorophenyl)-3-pyridyl]-2-(dimethylamino)pyrimidine-5-carboxamide], the “Empirical Emax” value was “++++ (++++ indicates a value greater than 7.5)”. With `CCOc1ncc(C(=O)Nc2c(-c3ccccc3F)ccnc2C2CCC(F)(F)CC2)cn1` [Example 3, N-[2-(4,4-difluorocyclohexyl)-4-(2-fluorophenyl)-3-pyridyl]-2-ethoxy-pyrimidine-5-carboxamide] the “Empirical Emax” value was “++++ (++++ indicates a value greater than 7.5)”. `CC(C)Oc1ncc(C(=O)Nc2c(-c3ccccc3F)ccnc2C2CCC(F)(F)CC2)cn1` [Example 4, N-[2-(4,4-difluorocyclohexyl)-4-(2-fluorophenyl)-3-pyridyl]-2-isopropoxy-pyrimidine-5-carboxamide] was tested, and the “Empirical Emax” value was “++++ (++++ indicates a value greater than 7.5)”. For `COC1CCN(C(=O)Nc2c(-c3ccccc3F)ccnc2C2CCC(F)(F)CC2)CC1` [Example 5, N-[2-(4,4-difluorocyclohexyl)-4-(2-fluorophenyl)-3-pyridyl]-4-methoxy-piperidine-1-carboxamide], the “Empirical Emax” value was “+++ (+++ indicates a value from 5.0 up to 7.5 μM)”. For `CC(C)c1ncc(C(=O)Nc2c(-c3cc(F)ccc3F)ccnc2C2CCC(F)(F)CC2)cn1` [Example 6, N-[2-(4,4-difluorocyclohexyl)-4-(2,5-difluorophenyl)-3-pyridyl]-2-isopropyl-pyrimidine-5-carboxamide], the “Empirical Emax” value was “+++ (+++ indicates a value from 5.0 up to 7.5 μM)”. For `CC(C)Oc1ncc(C(=O)Nc2c(-c3cc(F)ccc3F)ccnc2C2CCC(F)(F)CC2)cn1` [Example 7, N-[2-(4,4-difluorocyclohexyl)-4-(2,5-difluorophenyl)-3-pyridyl]-2-isopropoxy-pyrimidine-5-carboxamide], the “Empirical Emax” value was “++++ (++++ indicates a value greater than 7.5)”. With `COc1ccc(C(=O)Nc2c(-c3cc(F)ccc3F)ccnc2C2CCC(F)(F)CC2)cn1` [Example 8, N-[2-(4,4-difluorocyclohexyl)-4-(2,5-difluorophenyl)-3-pyridyl]-6-methoxy-pyridine-3-carboxamide] the “Empirical Emax” value was “+++ (+++ indicates a value from 5.0 up to 7.5 μM)”. For `CC(C)c1ncc(C(=O)Nc2c(-c3cc(F)ccc3F)ccnc2C2CCC(F)(F)CO2)cn1` (stereo not drawn) [Example 9, N-[4-(2,5-difluorophenyl)-2-(5,5-difluorotetrahydropyran-2-yl)-3-pyridyl]-2-isopropyl-pyrimidine-5-carboxamide], the “Empirical Emax” value was “+++ (+++ indicates a value from 5.0 up to 7.5 μM)”. For `CC(C)c1ncc(C(=O)Nc2c(-c3ccccc3)ccnc2C2CCOCC2)cn1` [Example 10, 2-isopropyl-N-(4-phenyl-2-(tetrahydro-2H-pyran-4-yl)pyridin-3-yl)pyrimidine-5-carboxamide], the “Empirical Emax” value was “++ (++ indicates a value from 2.0 up to 5.0 μM)”. `CC(C)c1ncc(C(=O)Nc2c(-c3ccccc3F)ccnc2C2CCOCC2)cn1` [Example 14, N-(4-(2-fluorophenyl)-2-(tetrahydro-2H-pyran-4-yl)pyridin-3-yl)-2-isopropylpyrimidine-5-carboxamide] was tested, and the “Empirical Emax” value was “+++ (+++ indicates a value from 5.0 up to 7.5 μM)”. For `CC(C)c1ncc(C(=O)Nc2c(-c3ccccc3F)ccnc2C2CCC(F)(F)CC2)cn1` [Example 15, N-[2-(4,4-difluorocyclohexyl)-4-(2-fluorophenyl)-3-pyridyl]-2-isopropyl-pyrimidine-5-carboxamide], the “Empirical Emax” value was “++++ (++++ indicates a value greater than 7.5)”. With `CC(C)c1ncc(C(=O)Nc2c(-c3ccccc3F)ccnc2C2CCCOC2)cn1` (stereo not drawn) [Example 16, N-[4-(2-fluorophenyl)-2-tetrahydropyran-3-yl-3-pyridyl]-2-isopropyl-pyrimidine-5-carboxamide] the “Empirical Emax” value was “++ (++ indicates a value from 2.0 up to 5.0 μM)”. For `CC(C)c1ncc(C(=O)Nc2c(-c3ccccc3F)ccnc2C2CCCCC2)cn1` [Example 17, N-[2-cyclohexyl-4-(2-fluorophenyl)-3-pyridyl]-2-isopropyl-pyrimidine-5-carboxamide], the “Empirical Emax” value was “+++ (+++ indicates a value from 5.0 up to 7.5 μM)”. For `CC(C)c1ncc(C(=O)Nc2c(-c3ccccc3F)ccnc2C2CCCCO2)cn1` (stereo not drawn) [Example 18, N-[4-(2-fluorophenyl)-2-tetrahydropyran-2-yl-3-pyridyl]-2-isopropyl-pyrimidine-5-carboxamide], the “Empirical Emax” value was “+++ (+++ indicates a value from 5.0 up to 7.5 μM)”. In the case of `CC(C)c1ncc(C(=O)Nc2c(-c3ccccc3F)ccnc2C2CC3(C2)CC(F)(F)C3)cn1` [Example 19, N-[2-(2,2-difluorospiro[3.3]heptan-6-yl)-4-(2-fluorophenyl)-3-pyridyl]-2-isopropyl-pyrimidine-5-carboxamide], the “Empirical Emax” value is reported as “++ (++ indicates a value from 2.0 up to 5.0 μM)”. `CC(C)c1ncc(C(=O)Nc2c(-c3ccccc3F)ccnc2C2CC(F)(F)CCN2C(=O)OC(C)(C)C)cn1` (stereo not drawn) [Example 20, tert-butyl 4,4-difluoro-2-[4-(2-fluorophenyl)-3-[(2-isopropylpyrimidine-5-carbonyl)amino]-2-pyridyl]piperidine-1-carboxylate] was tested, and the “Empirical Emax” value was “+ (+ indicates a value less than 2.0 μM)”. `CC(C)c1ncc(C(=O)Nc2c(-c3ccccc3F)ccnc2[C@H]2CC[C@](O)(C(F)(F)F)CC2)cn1` [Example 21, N-[4-(2-fluorophenyl)-2-[4-hydroxy-4-(trifluoromethyl)cyclohexyl]-3-pyridyl]-2-isopropyl-pyrimidine-5-carboxamide] was tested, and the “Empirical Emax” value was “+ (+ indicates a value less than 2.0 μM)”. For `CC(C)c1ncc(C(=O)Nc2c(-c3ccccc3F)ccnc2C2CC3(C2)CC3(F)F)cn1` (stereo not drawn) [Example 22, N-[2-(2,2-difluorospiro[2.3]hexan-5-yl)-4-(2-fluorophenyl)-3-pyridyl]-2-isopropyl-pyrimidine-5-carboxamide], the “Empirical Emax” value was “+++ (+++ indicates a value from 5.0 up to 7.5 μM)”. For `CC(C)c1ncc(C(=O)Nc2c(-c3ccccc3F)ccnc2C2C[C@@H]3[C@H](C2)C3(F)F)cn1` (stereo partly drawn) [Example 23, N-[2-[(1R,5S)-6,6-difluoro-3-bicyclo[3.1.0]hexanyl]-4-(2-fluorophenyl)-3-pyridyl]-2-isopropyl-pyrimidine-5-carboxamide], the “Empirical Emax” value was “++++ (++++ indicates a value greater than 7.5)”. With `CC(C)c1ncc(C(=O)Nc2c(-c3ccccc3F)ccnc2C2CCC(F)(F)C2)cn1` (stereo not drawn) [Example 24, N-[2-(3,3-difluorocyclopentyl)-4-(2-fluorophenyl)-3-pyridyl]-2-isopropyl-pyrimidine-5-carboxamide] the “Empirical Emax” value was “++++ (++++ indicates a value greater than 7.5)”. For `CC(C)c1ncc(C(=O)Nc2c(-c3ccccc3F)ccnc2C2CCCC(F)(F)C2)cn1` (stereo not drawn) [Example 26, N-[2-(3,3-difluorocyclohexyl)-4-(2-fluorophenyl)-3-pyridyl]-2-isopropyl-pyrimidine-5-carboxamide], the “Empirical Emax” value was “+++ (+++ indicates a value from 5.0 up to 7.5 μM)”. `CC(C)c1ncc(C(=O)Nc2c(-c3ccccc3F)ccnc2C2CCC3(C2)CC3(F)F)cn1` (stereo not drawn) [Example 27, N-[2-(2,2-difluorospiro[2.4]heptan-6-yl)-4-(2-fluorophenyl)-3-pyridyl]-2-isopropyl-pyrimidine-5-carboxamide] was tested, and the “Empirical Emax” value was “+++ (+++ indicates a value from 5.0 up to 7.5 μM)”.
